# Literature values, collected in PubChem BioAssay AID1259409 (Chemical Carcinogenesis Research Information System (CCRIS), 2018).
# System: rodent chemically induced tumor inhibition, incidence and multiplicity
# Assay: CCRIS tumor inhibitor studies
# Conditions: Carcinogen: ETHYL METHANESULFONATE, 62-50-0, Dose [Inhibitor]: 0, Route [Inhibitor]: INTRAMUSCULAR, Species: RAT, Strain/Sex: WISTAR/FEMALE, Target Tissue: Type of Lesion: MAMMARY GLAND: CARCINOMA, Dose [Carcinogen]: 0.001 MOLAR SOLUTION IN TAP WATER FOR 12 WK, Promoter: NONE USED
smiles,measurement,setting,value
CCCCC[C@H](O)/C=C/[C@@H]1[C@@H](C/C=C\CCCC(=O)O)[C@@H](O)C[C@H]1O,"tumour outcome (control, treated, inhibition, significance)",1 MG/KG IN SESAME OIL 2/WK FOR 8 WK ADMINISTERED CONCOMITANTLY WITH CARCINOGEN TREATMENT (STUDY DURATION: 44 WK),"100%, 61%, 39%, p<0.01"
same,"tumour outcome (control, treated, inhibition, significance)",1 MG/KG IN SESAME OIL 2/WK FOR 8 WK BEGINNING POST CARCINOGEN TREATMENT (STUDY DURATION: 44 WK),"100%, 88%, 12%, not significant"
